What was measured:
[1] = test system: Staphylococcus aureus KCTC 3881; test: Mouse splinted excisional wound model, wound size by caliper; type: in vivo, BALB/c mouse; details: no red light
Description: (§1) A 7-week-old male BALB/c mouse (BALB-cAnNCr1jOri, Orientbio, Seongnam, South Korea) was housed for a week in a sterile animal room (SPF, Specific pathogen free) with a controlled air temperature of 22±2° C., a humidity of 50±10%, and the cycle of 12 hours of light and 12 hours of dark. The mice were anesthetized through an avertin intraperitoneal injection, a 5 mm wound was made therein using a biopsy patch, and a central portion of silicone drilled to an outside diameter of 15 mm and an inside diameter of 5 mm was stuck to fit the wound. Then, in the case of the experimental group, 10 μL of a physiological buffer solution (PBS) containing 10^9 CFU/mL of Staphylococcus aureus KCTC 3881 (S.A. bacterium) was inoculated into the wound site, which was then clogged with Tegaderm, and the back of the mice was wrapped with a compression bandage so that the wound site was not in contact with the outside.
Two days after the infection with Staphylococcus aureus, in the case of the group treated with Ligularia fischeri ethanol according to Preparation Example 1(1), the wound was treated with 10 μL of a Ligularia fischeri ethanol extract (20 μg/mL), and in the case of the red light treated group, the wound was treated with red light LED (wavelength: 660 nm, 120 W/m^2) for 15 minutes. In addition, in the case of the Ligularia fischeri ethanol extract according to Preparation Example 1(1) and the red light-treated group, 10 μL of the Ligularia fischeri ethanol extract (20 μg/mL) was treated on the wound for 30 minutes and then red light (120 W/m^2) was treated for 15 minutes. […]
The wound was treated in the same manner as above, even 4, 6, and 8 days after infection with Staphylococcus aureus, and the image of the wound site was obtained on Day 2, 4, 6, and 8 after infection with Staphylococcus aureus. The width and height of the wound site were measured using a caliper and the product obtained by multiplying the width with the height was used to calculate the wound size in mm^2. […]

[2] = test system: Staphylococcus aureus KCTC 3881; test: Mouse splinted excisional wound model, wound closure by H&E histology (distance between epidermis tips); type: in vivo, BALB/c mouse; details: no red light
Description: as §1
Two days after the infection with Staphylococcus aureus, in the case of the group treated with Ligularia fischeri ethanol according to Preparation Example 1(1), the wound was treated with 10 μL of a Ligularia fischeri ethanol extract (20 μg/mL), and in the case of the red light treated group, the wound was treated with red light LED (wavelength: 660 nm, 120 W/m^2) for 15 minutes. […]
A wound size measurement is a measurement of apparently appearing wound scab and requires the task of histologically confirming whether the wound has been closed by an epidermis actually newly created inside the scab. To this end, the distance between the wound epidermis was measured. […]
Example 1(1)+red light), and the ampicillin-treated group (S.A.bacteria+Ampicillin) on Day 8 after the wound is infected with Staphylococcus aureus (S.A.bacteria). […] At this time, statistical significance between Control (PBS) and S. A. bacteria-treated group was expressed as ^##p<0.001. Statistical significance with S. A. bacteria-treated group-treated group was expressed as *p<0.05 or […]. […]

With `CC1(C)S[C@@H]2[C@H](NC(=O)[C@H](N)c3ccccc3)C(=O)N2[C@H]1C(=O)O` [ampicillin, Ampicillin] the “wound size compared to the group treated with S.A. bacteria” value ([1]; Day 8, infected wound) was “no significant difference in wound size”, the “wound size, % of the initial wound size” value ([1]; Day 8, wound infected with S.A. bacteria, topical 10 μL) was 53.7% and the “change in wound size, uninfected (PBS) wound” value ([1]; PBS (no S.A. infection)) was “the change in wound size did not occur over time”. The “wound closure (epidermis formation, H&E)” value ([2]; Day 8, PBS (uninfected) wound) was “completely closed”, the “distance between epithelial tips (wound maintained)” value ([2]; Day 8, infected wound) was 16.6% and the “histological wound size compared to the S.A. bacteria-treated group” value ([2]; Day 8, infected wound) was “reduced”.
